Reference: US8629272B2, “Tricyclic pyrimidine derivatives as wnt antagonists” (Deutsches Krebsforschungszentrum, priority 2009, dated 2014)
pIC50: −log10 of the molar value.

Tests used:
Format in all cases: cell-based
[1] = system: Wnt signalling pathway; assay: Wnt-sensitive reporter gene assay (6xTCF-luciferase, pTOP-FLASH) in Hek293T cells; set-up: Normalized Wnt pathway (inhibitory) activity: scale not given here; details: for pIC50: Homo sapiens, HEK-293T, Hek293T, 24 h incubation, 5 nM-100 microM, read-out: IC50 of the Wnt signalling pathway inhibiting activity
Experimental: To screen for small-molecule modulators of the Wnt signalling pathway, a reporter gene based assay describing the modulation of the TCF4 transcription factor was used. More specifically 4000 Hek293T cells were seeded into 384 high density plates. 24 h after seeding a Wnt-sensitive reporter (6×TCF-luciferase (Firefly) (pTOP-FLASH; “Armadillo co activates transcription driven by the product of the drosophila segment polarity gene dTCF”, Cell, 1997, 88(6), pages 789-799) and constitutively expressed control reporter (Renilla luciferase pCMV-RL) were transfected into Hek293T. Wnt signaling was stimulated by cotransfecting mouse Wnt1, mouse Frizzled 8 and human LRP6 according to “Casein kinase 1 gamma couples Wnt receptor activation to cytoplasmic signal transduction”, Nature, 2005, 438 (7069), pages 867-872. 24 h after pathway stimulation compounds were added at a concentration of 10 microM and allowed to incubate for 24 h. For the evaluation of the IC50 the compound was applied in increasing concentrations yielding final concentrations per well of 5 nM-100 microM.

[2] = system: human colon carcinoma cells HCT116; assay: Antiproliferative activity against HCT116, cell count
Experimental: (§1) For examination of cell line-specific cytotoxicity, compounds were applied to human colorectal cancer cells (HCT116, denoted (1); SW480, denoted (2); Dld-1, denoted (3)) and human fibroblasts (HFF-1, denoted (4); HS-68, denoted (5)), cultured in Mc Coy's (1) and Dulbecco's Modified Eagles Medium (2-5), supplemented with 10% ((1)-(3)) and 20% ((4), (5)) fetal calf serum and 1% penicillin/streptomycin. Cells were grown in T75 flasks at 37° C., 5% CO2 and trypsinized when 60-80% confluent by adding 2 ml of 0.25% Trypsin-EDTA solution. Cells were then re-suspended into culture medium and approx. 750 cells, suspended in 45 microl medium, were plated into each well of a black 384-well plate for fluorescence imaging experiments. 24-36 hr later 5 microl compound solution (100 microM compound dissolved in ultra pure water containing 1% DMSO), were added to achieve a final concentration of 10 microM and were incubated for at least 72 hr. Compound incubation was terminated by (a) fixation and (b) permeabilisation of cells, followed by (c) fluorescence labeling of cell nuclei for cytometric quantification or by immunocytochemistry for microscopic evaluation of cell morphology. The three steps were performed by replacing the solution of the previous step in each well of a 384-well plate by (a) 30 microl PBS (phosphate buffered saline) containing 5% PFA (paraformaldehyde), (b) 30 microl PBS containing 0.2% TritonX-100 and (c) 10 microl PBS containing Hoechst-33342 for cytometry or Hoechst-33342, FITC (fluorescein isothiocyanate-) labeled α-tubulin antibodies and TRITC-(tetramethylrhodamine isothiocyanate-) labeled phalloidin antibodies for microscopy. Solutions were incubated for 15 (a,b) and 30 min (c) in the dark at room temperature. Cells were washed twice between each step with 30 microl PBS. The assay system was miniaturized and adapted to automated workflow using liquid-handling robotics.
Cell line-specific cytotoxicity was quantified by counting the number of Hoechst labeled nuclei per well of a 384-well plate using a plate cytometer. Data obtained with the cytometer was analysed using standard data analysis software.
The examination of the antiproliferative activity against human colon carcinoma cells HCT116 was carried out in analogy to example 35. […] Compounds of the present invention have potent antiproliferative activity against human colon carcinoma cells as shown for HCT116 in Table 6.

[3] = system: human fibroblasts HS-68; assay: Cell line specific cytotoxicity, count of Hoechst labeled nuclei, normal cells HS68
Experimental: as §1, with “24-36 hr later 5 microl compound solution (100 microM compound dissolved in ultra pure water containing 1% DMSO), were added to achieve a final concentration of 10 microM and were incubated for at least 72 hr.” left out
Cell line-specific cytotoxicity was quantified by counting the number of Hoechst labeled nuclei per well of a 384-well plate using a plate cytometer. Data obtained with the cytometer was analysed using standard data analysis software. […]

SMILES	Normalized Wnt pathway (inhibitory) activity ([1]; 0.005 microM)	Normalized Wnt pathway (inhibitory) activity ([1]; 0.015 microM)	Normalized Wnt pathway (inhibitory) activity ([1]; 0.137 microM)	Normalized Wnt pathway (inhibitory) activity ([1]; 0.412 microM)	Normalized Wnt pathway (inhibitory) activity ([1]; 1.235 microM)	Normalized Wnt pathway (inhibitory) activity ([1]; 3.704 microM)	Normalized Wnt pathway (inhibitory) activity ([1]; 11.111 microM)	Normalized Wnt pathway (inhibitory) activity ([1]; 33.333 microM)	Normalized Wnt pathway (inhibitory) activity ([1]; 100.000 microM)	pIC50 [1]	Normalized cell count (HCT 116) ([2]; 0.005 microM)	Normalized cell count (HCT 116) ([2]; 0.015 microM)	Normalized cell count (HCT 116) ([2]; 0.046 microM)	Normalized cell count (HCT 116) ([2]; 0.137 microM)	Normalized cell count (HCT 116) ([2]; 0.412 microM)	Normalized cell count (HCT 116) ([2]; 1.235 microM)	Normalized cell count (HCT 116) ([2]; 3.704 microM)	Normalized cell count (HCT 116) ([2]; 11.111 microM)	Normalized cell count (HCT 116) ([2]; 33.333 microM)	Normalized cell count (HCT 116) ([2]; 100.000 microM)	also measured
CCOC(=O)C1=C(c2ccccc2)c2c(n(-c3ccccc3)c(=O)n3c(-c4cccc(OC)c4)nnc23)NC1C (centres unmarked) [Example 16, 3-(3-Methoxy-phenyl)-7-methyl-4-oxo-5,9-diphenyl-4,5,6,7-tetrahydro-1,2,3a,5,6-pentaaza-cyclopenta[a]naphthalene-8-carboxylic acid ethyl ester]	0.9907	1.2275	1.0070	1.0435	0.9565	0.5445	0.3755	0.3063	0.1990	5.53	1	1.063	1.163	1.06	1.067	1.125	1.2	1.231	0.52	0.5801	Normalized Wnt pathway (inhibitory) activity ([1]; 0.046 microM): 1.0533; Normalized cell count (HS68) ([3]; 0.005 micoM): 1; Normalized cell count (HS68) ([3]; 0.015 micoM): 0.9904; Normalized cell count (HS68) ([3]; 0.046 micoM): 1.038; Normalized cell count (HS68) ([3]; 0.137 micoM): 1.056; Normalized cell count (HS68) ([3]; 0.412 micoM): 1.111; Normalized cell count (HS68) ([3]; 1.235 micoM): 1.051; Normalized cell count (HS68) ([3]; 3.704 micoM): 1.175; Normalized cell count (HS68) ([3]; 11.111 micoM): 1.144; Normalized cell count (HS68) ([3]; 33.333 micoM): 0.8005; Normalized cell count (HS68) ([3]; 100.000 micoM): 0.9046
CCOC(=O)C1=C(c2ccccc2)c2c(n(-c3ccccc3)c(=O)n3c(-c4ccc(OC)cc4)nnc23)NC1C (centres unmarked) [Example 18]	0.8680	1.1175	1.0825	1.1223	0.7260	0.8798	0.6365	0.4930	0.2505	4.66	1	0.9377	0.9859	0.8603	0.9166	0.8399	0.4154	0.1595	0.1555	0.1892	Normalized Wnt pathway (inhibitory) activity ([1]; 0.046 microM): 1.0168; Normalized cell count (HS68) ([3]; 0.005 micoM): 1; Normalized cell count (HS68) ([3]; 0.015 micoM): 0.9938; Normalized cell count (HS68) ([3]; 0.046 micoM): 1.014; Normalized cell count (HS68) ([3]; 0.137 micoM): 0.9488; Normalized cell count (HS68) ([3]; 0.412 micoM): 0.9736; Normalized cell count (HS68) ([3]; 1.235 micoM): 1.014; Normalized cell count (HS68) ([3]; 3.704 micoM): 0.7952; Normalized cell count (HS68) ([3]; 11.111 micoM): 0.5499; Normalized cell count (HS68) ([3]; 33.333 micoM): 0.3651; Normalized cell count (HS68) ([3]; 100.000 micoM): 0.4385
CCOC(=O)C1=C(C)Nc2c(c3nnc(-c4cccc(OC)c4)n3c(=O)n2-c2ccccc2)C1c1ccccc1 (centres unmarked) [Example 15, 3-(3-Methoxy-phenyl)-7-methyl-4-oxo-5,9-diphenyl-4,5,6,9-tetrahydro-1,2,3a,5,6-pentaaza-cyclopenta[a]naphthalene-8-carboxylic acid ethyl ester]	0.9417	0.9230	1.0963	0.9830	0.8830	0.2973	0.2350	0.4200	0.4505	5.87	1	1.039	1.013	0.9313	0.9219	0.865	0.7235	0.2716	0.257	0.1496	Normalized cell count (HS68) ([3]; 0.005 micoM): 1; Normalized cell count (HS68) ([3]; 0.015 micoM): 0.9166; Normalized cell count (HS68) ([3]; 0.046 micoM): 1.018; Normalized cell count (HS68) ([3]; 0.137 micoM): 0.9967; Normalized cell count (HS68) ([3]; 0.412 micoM): 0.9484; Normalized cell count (HS68) ([3]; 1.235 micoM): 0.961; Normalized cell count (HS68) ([3]; 3.704 micoM): 0.9772; Normalized cell count (HS68) ([3]; 11.111 micoM): 0.9757; Normalized cell count (HS68) ([3]; 33.333 micoM): 0.9593; Normalized cell count (HS68) ([3]; 100.000 micoM): 0.9099
